Test results published in patent US9714247B2, “Multiple kinase pathway inhibitors” (Mannkind Corporation, priority 2012, dated 2017).
Read-outs that look alike come from different tables or passages of the source.

Legend:
[1] = system: PLC-γ2 phosphorylation in DoHH-2; test: PLCγ2 phosphorylation by flow cytometry; type: cell-based, human; settings: DoHH-2, increasing concentrations (data not shown)
Experimental: PLCγ2 phosphorylation was also assessed by flow cytometry. Cells were similarly stimulated and following stimulation, Cytofix buffer (Becton Dickinson) was added, cells were centrifuged and the cell pellets incubated on ice with Phosflow perm buffer III (Becton Dickinson). These cell pellets were washed with Perm/Wash buffer (Becton Dickinson); resuspended and labeled for flow cytometry analysis in a staining mixture containing Perm/Wash buffer and PE-labeled anti-phosphoPCLγa2 (Tyr1217) antibody (Becton Dickinson). The samples were washed with Perm/Wash buffer and analyzed on a FACS Calibur flow cytometer using CellQuest Pro software. As mentioned for the Western blot experiments, phosphorylation of PLCγ2 at Tyr1217 along with Tyr753, Tyr759 and Tyr1197 is correlated with increased PLCγ2 activity. The readout for BTK network signaling was inhibition of phosphorylation of PLCγ2. Cells were gated to exclude dead or dying cells. Fluorescence signals from the antibody staining were plotted in logarithmic units and data was analyzed using Cellquest Pro software. […] An ED50 was calculated based on the geometric mean of fluorescence intensity observed for treatment for four different concentrations of the inhibitors (see Table 7 and FIG. 6). […] Thus treatment with amino naphthyridinones inhibits PLCγ2 phosphorylation consistent with inhibition of BTK and/or LYN activity.

[2] = system: PC3; test: Apoptosis by flow cytometry (Annexin V / 7AAD); type: cell-based; settings: Table 5, 6 hours
[3] = system: PARP cleavage in DoHH-2 cells; test: PARP cleavage by Western blotting; type: cell-based, human; settings: DoHH-2 cells, 2, 6 and 24 hr, low micromolar concentrations
Experimental: Additionally, using an exemplary amino naphthyridinones, Compound 1, […] PARP cleavage has been observed. PARP is downstream of the caspase cascade; its cleavage is an indicator or caspase-dependent apoptosis. PARP cleavage was assessed by Western blotting exponentially growing cultures of DoHH-2 cells that had been cultured overnight (18 h) in 1% FBS containing RPMI1640 media. These cells were washed, counted and plated with and without Compound 1 for 2, 6, and 24 hr. Cells were centrifuged and cell pellets were lysed using RIPA buffer from CST. Protein lysates were quantified using the BCA protein assay kit from Pierce and used in a standard Western blotting procedure. Anti-PARP antibody was obtained from CST and used as per the manufacturer's protocol. […] Thus amino naphthyridinones can be used to induce apoptosis in tumor cells.

[4] = system: PLCγ2 phosphorylation in Ramos cells; test: PLCγ2 phosphorylation by flow cytometry; type: cell-based, human
In short: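 Ramos cells starved 18 h in 1% FBS, pretreated with inhibitor 2 h, then stimulated with anti-IgM (10 ug/ml final) plus 3.3 mM H2O2 for 2 min, then cross-linking F(ab) (10 ug/ml) plus H2O2 for 8 min. Fixed, permeabilized cells stained with PE anti-phospho-PLCγ2 (Tyr1217 or Tyr759), dead cells gated out; ED50 from geometric mean fluorescence over four inhibitor concentrations.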

[5] = system: PLCγ2 phosphorylation in Ramos cells; test: PLCγ2 phosphorylation by Western blotting; type: cell-based, human; settings: anti-IgM/H2O2 stimulation, Tyr1217
Experimental: Ramos cells were cultured in RPMI 1640 media with 10% FBS and were starved overnight (18 h) in 1% FBS containing media and on the next day pretreated with inhibitor for 2 h before stimulation. Cells were stimulated to induce BTK network dependent signal transduction pathways using mouse anti-human IgM (final concentration 10 ug/ml; Invitrogen) antibodies and 3.3 mM H2O2 mixture for 2 minutes followed by F(Ab) fragment that cross-linked the anti-IgM antibody (final concentration 10 ug/ml), and 3.3 mM H2O2 for 8 minutes. Cell lysates were prepared in lysis buffer containing protease and phosphatase inhibitors, quantified using the BCA protein assay kit (Pierce) and used for Western blotting. Antibodies specifically targeted to the molecules of interest, PLCγ2 phosphorylated at Tyr1217 and total PLCγ2, (Cell Signaling Technology) were used in a standard Western blotting procedure.
Phosphorylation of PLCγ2 at Tyr1217 along with Tyr753, Tyr759 and Tyr1197 is correlated with increased PLCγ2 activity. The readout for BTK network signaling was inhibition of phosphorylation of PLCγ2 induced by the anti-IgM treatment.

[6] = system: phosphorylation of SFKs in Ramos cells; test: SFK phosphorylation (Tyr 416) by flow cytometry; type: cell-based, human
In short: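 Ramos cells pretreated with compound 2 hrs in RPMI with 5% FBS, then stimulated 10 minutes with H2O2/anti-IgM. Phospho-Tyr 416 SFK detected by flow cytometry with an antibody that may cross-react across Src family members, plus fluorescent secondary antibody.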

[7] = system: DoHH2 cells; settings: treated 24 hours
[8] = system: DoHH-2 tumor xenograft; type: in vivo
[9] = biological target: T1, Src (Homo sapiens (Human), UniProt P12931); test: biochemical
T1 sequence (P12931 whole entry, looked up): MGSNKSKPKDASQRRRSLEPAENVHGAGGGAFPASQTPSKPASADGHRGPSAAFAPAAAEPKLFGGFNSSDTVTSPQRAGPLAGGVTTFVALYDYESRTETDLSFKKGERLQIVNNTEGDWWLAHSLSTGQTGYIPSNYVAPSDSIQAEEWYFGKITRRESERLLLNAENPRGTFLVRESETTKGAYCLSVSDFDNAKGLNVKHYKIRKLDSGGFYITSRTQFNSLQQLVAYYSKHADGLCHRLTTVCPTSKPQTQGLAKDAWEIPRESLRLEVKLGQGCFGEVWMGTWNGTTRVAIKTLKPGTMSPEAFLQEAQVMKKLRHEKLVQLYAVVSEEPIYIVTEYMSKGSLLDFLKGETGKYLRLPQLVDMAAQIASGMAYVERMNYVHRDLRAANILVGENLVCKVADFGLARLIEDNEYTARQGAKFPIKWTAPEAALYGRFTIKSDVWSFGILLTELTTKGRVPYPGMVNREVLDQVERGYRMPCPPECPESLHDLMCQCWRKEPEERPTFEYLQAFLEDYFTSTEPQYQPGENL

[10] = system: phosphorylation of SFKs in Ramos cells; test: SFK phosphorylation (Tyr 416) by Western blotting; type: cell-based, human; settings: pretreated 2 hours
Experimental: Ramos cell lysates from stimulated and unstimulated cells were analyzed for the levels of phosphorylated SRC family members. As described in Example 82 (above), cells were pretreated for 2 hours with an amino naphthyridinones and then stimulated with anti-IgM antibody and H2O2, protein lysates were prepared, quantified and used for Western blotting. A commercially available antibody that detects Src phosphorylated at Tyr 416 (Cell Signalling) and may cross-react with other Src family members such as Lyn, Fyn, Lck, Yes and Hck when phosphorylated at equivalent sites was used for Western blot analysis. The molecular weights of SFK family members are quite similar (in the 55-60 kDa range) and different family members cannot be resolved by the conditions used for the Western blot. […] The procedure can be similarly adapted for flow cytometric analysis as with the PLC-γ2 assay in Example 82. Ramos cells were incubated with Compound 1 for 2 hrs in RPMI media with 5% FBS prior to stimulation stimulated with H2O2/anti-IgM/F(Ab) for 10 minutes. Cells were evaluated by FACS analysis using anti-pSRC antibody and FITC-conjugated goat anti-rabbit secondary antibody following overnight storage at 4° C. in BD perm/wash buffer.

[11] = biological target: T1, Src; settings: read-out: Src IC50

For CCN(CC)CCOc1ccc(Nc2cc3c(cn2)cc(-c2ccccc2)c(=O)n3CC)nc1 [Compound 1, 7-[5-(2-Diethylamino-ethoxy)-pyridin-2-ylamino]-1-ethyl-3-phenyl-1H-[1, 6]naphthyridin-2-one], the “Inhibition of PLC-γ2 phosphorylation (flow cytometry)” value [1] was “dose dependent decrease in PLC-γ2 phosphorylation”, the “Percent Apoptosis PC3” value ([2]; 1 uM) was 7.86% and the “Percent Apoptosis PC3” value ([2]; 2 uM) was 6.5%. The “Percent Apoptosis PC3” value ([2]; 5 uM) was 11.74%, the “Percent Apoptosis PC3” value ([2]; 10 uM) was 6.35% and the PARP cleavage [3] was “induced the apoptotic pathway as shown by PARP cleavage”. The inhibition at 0.3 µM ([4]; Homo sapiens, 0.3 uM, flow cytometry, anti-phospho PLCγ2 (Tyr759), read-out: pPLCγ % inhibition) was 63%, the EC50 ([4]; Homo sapiens, flow cytometry, anti-phospho PLCγ2 (Tyr1217), four concentrations, read-out: Inhibition of phosphorylation of PLC-γ2 EC50) was 380 nM and the “Inhibition of PLC-γ2 phosphorylation (flow cytometry)” value ([4]; increasing concentrations) was “dose dependent decrease in PLC-γ2 phosphorylation”. For the same compound, the “Inhibition of PLCγ2 phosphorylation (Western blot)” value [5] was “dose dependent decrease in PLCγ2 phosphorylation”, the inhibition at 0.3 µM ([6]; Homo sapiens, 0.3 uM, flow cytometry, SFK phosphorylated at Tyr 416, read-out: pSRC % inhibition) was 31% and the “Inhibition of SFK phosphorylation (flow cytometry)” value ([6]; incubated 2 hrs) was “dose-dependent inhibition of SFK phosphorylation”. The “Effect on Cell Cycle” value [7] was “G1 Arrest”, the “Effect on tumor growth compared with 70 mg/kg PCI-32765” value ([8]; 62.5 mg/kg) was “more marked effect” and the Mortality ([8]; 62.5 mg/kg group, day 17) was 2 animals. The “Estimated maximal tolerated dose” value ([8]; IP, SCID mice) was roughly 62.5 mg/kg/day, the Tumor growth inhibition ([8]; highest dose 62.5 mg/kg/day IP, day 15, 19 and 21) was “significantly inhibited tumor growth” and the IC50 [9] was 100 to 1000 nM. For the same compound, the “Inhibition of phosphorylation of SFKs (Western blot)” value [10] was “dose-dependent decrease of phosphorylation of SFKs”.

Work on CCn1c(=O)c(-c2ccccc2)cc2cnc(Nc3ncc(CCN(C)C)s3)cc21 [Compound 2, 7-[5-(2-Dimethylamino-ethyl)-thiazol-2-ylamino]-1-ethyl-3-phenyl-1H-[1,6]naphthyridin-2-one] yielded an IC50 [11] greater than 5000 nM.
